The values that follow are results of earlier work, collected in paper PMC9291711, “PLGA-modified Syloid®-based microparticles for the ocular delivery of terconazole: in-vitro and in-vivo investigations” (Drug Delivery, 2022).

The structures appear in SMILES notation.

The conditions of this data set: stated without reference.

Regarding `CC(C)N1CCN(c2ccc(OCC3COC(Cn4cncn4)(c4ccc(Cl)cc4Cl)O3)cc2)CC1` (centres unmarked) [Terconazole, terconazole], the Pka was 8; the log P (as a rule, the decadic logarithm of the partition coefficient of the neutral form, usually between octanol and water) is on record as 5.37.
